“Also recorded” adds a separate entry of the source.
Legend:
α2β1 integrin receptors = target: T1, α2β1 integrin receptors (Homo sapiens, UniProt P05556+P17301); assay: PFA-100 platelet function analysis, whole blood closure time; type: cell-based; conditions: Collagen/ADP cartridges, vs untreated control
T1 construct: endogenous in cells; host or cells: platelets in anticoagulated whole blood of healthy donors
Method: The responsiveness of the genotyped healthy volunteers to a treatment involving the blockade of α2β1 integrin receptors was assessed by measuring the effect of synthetic α2β1 integrin inhibitors, such as sulphonamide derivatives disclosed e.g. in WO 2005/090298, on whole blood closure time in PFA-100 platelet function analysis. The PFA-100 analyzer is a high shear-inducing device that simulates primary haemostasis after injury of a small vessel. The system comprises a test-cartridge containing a biologically active membrane coated with collagen plus adenosine diphosphate (ADP). An anticoaculated whole blood sample is run through a capillary under a constant vacuum. […] Synthetic α2β1 integrin inhibitor was added to the whole blood sample obtained from each healthy volunteer, and the closure time was measured with PFA-100. […]
The effect of a synthetic α2β1 integrin inhibitor, sodium salt of 4-({[3-(4-fluorophenyl)phenyl]sulfonyl}amino)phenyl phenyl ketone (BTT-3016), on whole blood closure time in PFA-100 analysis was determined for donors representing each genotypic population. […] Samples were incubated at room temperature for 10 min., dispensed into PFA Collagen/ADP cartridges, and closure time was determined with PFA-100 (Dade Behring).

[1] = target: T2, α2 integrin over expressing CHO cell clone (CHO-α2) (Homo sapiens, UniProt P17301); assay: Binding of C^14-labeled integrin inhibitor to CHO-α2 cells; conditions: for binding of labeled compound in the presence of EDTA: CHO-α2 cells, 20 mM EDTA, 10 μM compound
T2 construct: expressed in transfected cells; host or cells: CHO cell clone over-expressing α2 integrin (CHO-α2)
T2 sequence (P17301 30-1181): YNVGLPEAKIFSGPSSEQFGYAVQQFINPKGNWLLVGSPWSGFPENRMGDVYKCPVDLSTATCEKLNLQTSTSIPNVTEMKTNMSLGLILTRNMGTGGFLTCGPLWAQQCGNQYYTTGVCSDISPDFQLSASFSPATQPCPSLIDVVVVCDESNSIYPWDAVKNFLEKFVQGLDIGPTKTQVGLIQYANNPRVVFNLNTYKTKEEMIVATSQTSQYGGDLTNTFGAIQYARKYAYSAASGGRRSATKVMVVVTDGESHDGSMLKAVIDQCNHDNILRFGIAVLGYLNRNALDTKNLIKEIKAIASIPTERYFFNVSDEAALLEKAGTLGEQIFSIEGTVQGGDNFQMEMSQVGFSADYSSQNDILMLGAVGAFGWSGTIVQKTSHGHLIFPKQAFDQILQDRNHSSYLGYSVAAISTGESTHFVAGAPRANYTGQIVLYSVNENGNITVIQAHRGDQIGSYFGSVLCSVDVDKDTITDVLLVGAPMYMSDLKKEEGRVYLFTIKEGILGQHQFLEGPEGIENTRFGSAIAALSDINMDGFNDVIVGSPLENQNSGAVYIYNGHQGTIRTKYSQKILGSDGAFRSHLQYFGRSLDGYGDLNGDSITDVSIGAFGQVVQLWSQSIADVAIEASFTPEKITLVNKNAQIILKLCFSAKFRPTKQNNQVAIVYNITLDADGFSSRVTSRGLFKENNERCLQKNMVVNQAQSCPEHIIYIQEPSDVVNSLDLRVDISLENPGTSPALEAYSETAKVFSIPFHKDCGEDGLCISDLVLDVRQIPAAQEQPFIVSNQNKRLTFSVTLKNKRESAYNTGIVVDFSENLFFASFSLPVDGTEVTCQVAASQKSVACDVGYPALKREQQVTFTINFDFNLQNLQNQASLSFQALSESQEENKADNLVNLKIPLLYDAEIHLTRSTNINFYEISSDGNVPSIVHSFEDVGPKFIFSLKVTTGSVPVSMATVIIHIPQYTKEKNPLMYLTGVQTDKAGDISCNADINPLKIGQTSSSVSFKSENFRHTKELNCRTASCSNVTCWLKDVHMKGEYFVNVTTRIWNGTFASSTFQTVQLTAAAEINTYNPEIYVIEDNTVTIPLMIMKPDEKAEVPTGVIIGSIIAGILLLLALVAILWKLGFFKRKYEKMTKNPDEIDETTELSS
T2 sequence (P05556 21-798 partner): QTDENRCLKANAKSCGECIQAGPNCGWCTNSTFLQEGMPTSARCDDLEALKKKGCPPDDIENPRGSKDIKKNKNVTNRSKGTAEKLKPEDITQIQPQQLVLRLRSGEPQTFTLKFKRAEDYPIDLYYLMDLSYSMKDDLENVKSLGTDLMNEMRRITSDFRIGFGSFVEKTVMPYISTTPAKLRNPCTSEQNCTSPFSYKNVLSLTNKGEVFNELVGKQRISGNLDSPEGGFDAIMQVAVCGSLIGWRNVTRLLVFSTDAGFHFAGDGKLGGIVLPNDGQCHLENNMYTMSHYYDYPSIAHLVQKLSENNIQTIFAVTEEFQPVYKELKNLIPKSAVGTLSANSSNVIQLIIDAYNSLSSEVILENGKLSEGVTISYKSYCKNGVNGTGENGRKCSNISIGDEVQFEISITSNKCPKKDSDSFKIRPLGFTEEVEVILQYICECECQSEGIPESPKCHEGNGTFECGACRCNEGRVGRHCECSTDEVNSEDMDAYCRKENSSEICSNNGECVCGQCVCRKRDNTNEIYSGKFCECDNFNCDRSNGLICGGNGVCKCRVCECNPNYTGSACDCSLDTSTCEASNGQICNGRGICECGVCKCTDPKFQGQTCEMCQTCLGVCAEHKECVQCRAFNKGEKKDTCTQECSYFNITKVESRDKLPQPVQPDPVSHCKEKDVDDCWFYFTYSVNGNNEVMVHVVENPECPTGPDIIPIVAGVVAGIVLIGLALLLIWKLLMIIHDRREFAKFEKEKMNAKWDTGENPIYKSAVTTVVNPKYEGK
Method: (§1) The binding of C^14-labeled integrin inhibitory compound, hydrochloride salt of [4-(dimethylamino)phenyl]{[3-(4-fluorophenyl)phenyl]-sulfonyl}methylamine, was studied with CHO-wt cells and α2 integrin over expressing CHO cell clone (CHO-α2). CHO-wt cells have no collagen receptor integrins on their cell surface. Cells were fixed in 2% formaldehyde in PBS. After that cells were washed and suspended in reaction buffer (50 mM Tris-HCl pH 7.4, 5 mM MgCl2). To all samples 10 μM C^14-labeled inhibitory compound was added and the cells were incubated in the presence or absence of 20 mM EDTA for 1 h in +4° C. 20000 cells from each sample were loaded to GF/B glass microfibre filter (Whatman) and the samples were washed with 10 mL of the reaction buffer. The membranes were put to scintillation buffer (Optiphase HiSafe3, Perkin Elmer) and the activity was measured with the scintillation counter (Wallac 1415).

CHO-wt cells = assay: Binding of C^14-labeled integrin inhibitor to CHO-wt cells; conditions: 20 mM EDTA, 10 μM compound, listed as C^u-labeled integrin inhibitor
Method: as §1

T1 sequence (P17301 30-1181): as the sequence (P17301 30-1181) above
T1 sequence (P05556 21-798): as the sequence (P05556 21-798 partner) above

| SMILES | effect on whole blood closure time (α2β1 integrin receptors; donors with high α2β1 expression (MEF≧35), genotype TT807 or CT807) | effect on whole blood closure time (α2β1 integrin receptors; donors with low integrin expression, genotype CC807) | binding of labeled compound to cells ([1]; 10 μM C^14-labeled compound, 1 h, +4° C, CHO-α2 compared with CHO-wt) | binding of labeled compound in the presence of EDTA [1] | binding of labeled compound in the presence of EDTA ([1]; listed as C^u-labeled integrin inhibitor) | binding of labeled compound in the presence of EDTA (CHO-wt cells) |
| --- | --- | --- | --- | --- | --- | --- |
| O=C(c1ccccc1)c1ccc(NS(=O)(=O)c2cccc(-c3ccc(F)cc3)c2)cc1 [BTT-3016, 4-({[3-(4-fluorophenyl)phenyl]sulfonyl}amino)phenyl phenyl ketone] | increases the blood closure time; also recorded: increase the closure time statistically significantly | non-responsive; also recorded: not efficacious |  |  |  |  |
| CN(C)c1ccc(NCS(=O)(=O)c2cccc(-c3ccc(F)cc3)c2)cc1 [[4-(dimethylamino)phenyl]{[3-(4-fluorophenyl)phenyl]-sulfonyl}methylamine] |  |  | bound more efficiently to CHO-α2 cells than to CHO-wt cells | could be inhibited | EDTA inhibits the binding | not to CHO-wild type (wt) cells |

Reference: US20120052057A9, “METHOD FOR SELECTING RESPONDERS TO BLOCKADE OF INTEGRIN RECEPTORS” (priority 2007, published 2012)
